IC50 and EC50 data for nine molecules are collected here from patent US20240217951A1, “PCSK9 INHIBITORS AND METHODS OF USE THEREOF” (AstraZeneca AB, priority 2022, published 2024).

Assay [1] addresses GSK3β (Glycogen synthase kinase-3 beta) (Homo sapiens, UniProt P49841). Kind of assay: Assay 6 - GSK3β assay (ThermoFisher Z-Lyte). In kind it is biochemical. As to conditions: geometric mean; ATP Conc: 10 μM; read-out: Assay 6 (GSK3β FRET-Z-Lyte CR) GMean IC50 (μM) ATP Conc: 10. In outline:
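Z-Lyte fluorescence kinase assay with 0.22-0.92 ng GSK3β and 2 μM Ser/Thr 09 peptide in 50 mM HEPES pH 7.5, 10 mM MgCl2, 1 mM EGTA, 0.01% BRIJ-35. Kinase reaction 60 min at room temperature, then 60 min development. 10-point 3-fold titration from 10 μM in 1% DMSO, fitted to a sigmoidal dose-response curve.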

Assay [2] has as its target T1, potassium ion channel hERG (human Ether-á-go-go-Related Gene) (Homo sapiens, UniProt Q12809).
T1 construct: expressed in transfected cells; host or cells: Chinese hamster ovary K1 (CHO)
Put plainly: Assay 5 - hERG assay (SyncroPatch 384PE patch clamp, CHO cells). Particulars: geometric mean; CHO cells over-expressing hERG; read-out: Assay 5 (hERG Hu CHO IF EPh CR-Syncro) GMean IC50. In kind it is cell-based. In a few lines: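 Automated high-throughput patch clamp on CHO-K1 cells overexpressing hERG at room temperature, KF/KCl internal with escin, NMDG-containing external at pH 7.4. Six-point cumulative compound addition, 0.33% DMSO final; wells kept only with seal >30 MΩ, Z′ >0.4 and current >0.2 nA.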

For assay [3], the target named is T2, PCSK9 (Homo sapiens, UniProt Q8NBP7, G670E/V474I). Kind of assay: Assay 3 - PCSK9 LDL-C uptake assay in HepG2 cells. In kind it is cell-based. More on the design: TEV cleavage site (C); His6 (C); host or cells: added to HepG2 cells (ATCC #HB-8065). As to conditions: 125 nM PCSK9, pHrodo Red-LDL, read-out: Assay 3 LDL uptake potency. An excerpt: Assay 3—PCSK9 LDL-C Uptake Assay
This assay measures for PCSK9 antagonist activity based on a test compound's capacity to restore LDL-C-uptake in HepG2 cells. The assay is based on exogenous PCSK9 and LDL-C complexed with a pH-sensitive dye. Outside the cells, at neutral pH, the pHrodo Red-LDL is dimly fluorescent but upon LDLR mediated endocytosis it fluoresces brightly. PCSK9 traffics the LDLR to intracellular degradation and reduces uptake of LDL-C. Inhibition of PCSK9 reduces LDLR degradation and the increased LDL-C uptake is quantified by fluorescence microscopy.
Preparation of Assay Reagents
Cell medium: MEM supplemented with 10% FBS, 1×NEAA and Sodium Pyruvate Assay medium: OptiMem supplemented with penicillin/streptomycin
Cells: HepG2 (ATCC #HB-8065)
Step by Step Protocol for Running the Assay:
• 1. Cryopreserved HepG2 cells were thawed in assay medium and centrifuged for 5 min at 250 g. Supernatant was discarded and the cell pellet resuspended in cell medium and counted with a Nucleocounter. Cells were again centrifuged 5 min at 250 g and the pellet was resuspended to 500000 cells/mL in assay medium. • 2. 20 μL of above cell mix was dispensed into black pclear TC treated 384 well plates with Multidrop Combi and left at room temperature for 20 minutes. • 3. Plates were incubated at 37° C., 5% CO2 for 24 h
• 1. Test compounds were prepared in concentration response in DMSO with a half-log dilution factor in DMSO in Echo 384 LDV plates starting at 10 mM. • 2. 30 nL of above test compounds were dispensed with Echo 655 to cells for a top concentration of 10 μM • 3. 10 μL PCSK9 in assay medium was dispensed to cells with Multidrop Combi for 125 nM final concentration in the wells. • 4. Plates were incubated at 37° C., 5% CO2 for 24 h
• 1. 10 μL pHrodo Red-LDL in assay medium was dispensed to cells with Multidrop Combi for 6 μg/mL • 2. Plates were incubated at 37° C., 5% CO2 and imaged with the Incucyte S3 after 4 h and 24 h
Image data was processed using Incucyte 2021, a software to identify cells and red fluorescent intensity. Screener was used to further process data. Data was normalized as % effect of the signal between median values of the on-plate controls of DMSO and 100 nM Evolocumab according to the formula % effect=−100*(x−DMSO)/(Evolocumab−DMSO) where x equals the measured signal. Concentration response data of the normalized values were fitted using a four-parameter logistic fit.

The target of assay [4] is T2, PCSK9. Kind of assay: biochemical.

Where only a bound is given, the exact number is not on record here.

T2 sequence (Q8NBP7 with tags, fused parts or gaps V474I/G670E): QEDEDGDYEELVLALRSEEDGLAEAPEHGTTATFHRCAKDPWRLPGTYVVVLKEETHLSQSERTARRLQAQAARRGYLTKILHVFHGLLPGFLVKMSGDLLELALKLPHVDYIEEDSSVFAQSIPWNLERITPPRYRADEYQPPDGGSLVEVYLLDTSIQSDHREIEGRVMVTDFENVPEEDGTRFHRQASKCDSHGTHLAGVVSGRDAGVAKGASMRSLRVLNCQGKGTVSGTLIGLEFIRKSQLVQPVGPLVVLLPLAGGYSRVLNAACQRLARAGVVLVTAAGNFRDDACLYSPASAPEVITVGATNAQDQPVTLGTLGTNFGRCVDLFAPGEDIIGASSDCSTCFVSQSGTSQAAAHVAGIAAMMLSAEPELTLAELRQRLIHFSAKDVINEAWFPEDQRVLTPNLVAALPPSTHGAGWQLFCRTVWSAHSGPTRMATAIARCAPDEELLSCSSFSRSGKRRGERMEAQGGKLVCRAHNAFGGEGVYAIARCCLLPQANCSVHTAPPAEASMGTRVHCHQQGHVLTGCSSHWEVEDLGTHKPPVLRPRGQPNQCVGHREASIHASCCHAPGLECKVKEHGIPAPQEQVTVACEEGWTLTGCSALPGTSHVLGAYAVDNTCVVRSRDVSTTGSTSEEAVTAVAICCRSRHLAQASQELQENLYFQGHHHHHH
GSK3β (Glycogen synthase kinase-3 beta), sequence (P49841 whole entry): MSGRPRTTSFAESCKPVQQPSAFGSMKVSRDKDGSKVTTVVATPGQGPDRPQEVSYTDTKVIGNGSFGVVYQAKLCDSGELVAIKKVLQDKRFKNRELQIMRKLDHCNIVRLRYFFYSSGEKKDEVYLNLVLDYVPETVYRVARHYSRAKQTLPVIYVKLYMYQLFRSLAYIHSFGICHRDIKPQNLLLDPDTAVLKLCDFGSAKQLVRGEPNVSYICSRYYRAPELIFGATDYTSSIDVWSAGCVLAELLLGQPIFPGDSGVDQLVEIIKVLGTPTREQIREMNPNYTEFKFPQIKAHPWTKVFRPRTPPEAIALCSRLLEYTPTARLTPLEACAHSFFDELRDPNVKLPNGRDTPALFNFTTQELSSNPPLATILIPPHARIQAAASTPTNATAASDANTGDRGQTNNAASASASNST
T1 sequence (Q12809 whole entry): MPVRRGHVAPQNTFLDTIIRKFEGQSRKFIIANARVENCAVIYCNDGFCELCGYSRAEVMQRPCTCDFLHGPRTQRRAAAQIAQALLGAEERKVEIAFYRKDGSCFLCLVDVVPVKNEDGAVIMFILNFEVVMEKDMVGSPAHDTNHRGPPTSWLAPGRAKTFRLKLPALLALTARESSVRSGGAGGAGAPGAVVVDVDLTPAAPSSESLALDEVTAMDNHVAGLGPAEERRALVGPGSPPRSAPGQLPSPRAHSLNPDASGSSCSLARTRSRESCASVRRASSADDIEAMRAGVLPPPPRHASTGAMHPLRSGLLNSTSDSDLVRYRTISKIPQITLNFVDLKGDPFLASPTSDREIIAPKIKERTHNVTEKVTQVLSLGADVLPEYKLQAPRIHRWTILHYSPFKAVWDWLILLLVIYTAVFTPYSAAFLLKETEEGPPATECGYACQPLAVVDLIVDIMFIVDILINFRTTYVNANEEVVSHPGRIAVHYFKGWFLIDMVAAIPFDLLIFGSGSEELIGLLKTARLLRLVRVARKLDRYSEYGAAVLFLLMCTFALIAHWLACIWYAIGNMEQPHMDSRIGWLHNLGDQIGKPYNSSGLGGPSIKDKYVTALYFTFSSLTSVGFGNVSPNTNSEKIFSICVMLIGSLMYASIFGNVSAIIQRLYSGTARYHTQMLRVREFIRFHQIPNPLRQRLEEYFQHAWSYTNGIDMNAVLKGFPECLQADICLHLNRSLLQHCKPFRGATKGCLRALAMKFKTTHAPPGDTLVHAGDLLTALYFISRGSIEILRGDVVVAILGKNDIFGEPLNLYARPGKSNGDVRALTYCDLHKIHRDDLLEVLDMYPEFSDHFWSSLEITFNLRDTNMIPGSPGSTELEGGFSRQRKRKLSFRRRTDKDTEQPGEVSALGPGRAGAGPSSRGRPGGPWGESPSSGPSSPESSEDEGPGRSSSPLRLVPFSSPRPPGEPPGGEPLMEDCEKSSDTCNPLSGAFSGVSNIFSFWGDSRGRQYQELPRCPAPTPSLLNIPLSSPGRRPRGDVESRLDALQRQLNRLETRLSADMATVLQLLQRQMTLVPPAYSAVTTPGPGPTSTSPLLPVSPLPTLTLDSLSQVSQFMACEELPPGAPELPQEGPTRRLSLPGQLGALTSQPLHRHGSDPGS

By IC50 is commonly meant the midpoint of a concentration-inhibition curve. For `O=c1c(Cl)cccn1-c1ccc(N[C@H]2CC[C@H](Nc3cnc(OC(F)F)cn3)C2)nc1` [Example 85, 3-Chloro-6′-(((1S,3S)-3-((5-(difluoromethoxy)pyrazin-2-yl)amino)cyclopentyl)amino)-2H-[1,3′-bipyridin]-2-one], the 50% inhibitory concentration (IC50) in assay [1] was more than 10 µM; in assay [2], 5600 nM; against PCSK9 [4], 4.3 nM. On PCSK9 [3], the EC50 is 200 nM.

On to `COc1cccn(-c2ccc(N[C@H]3CC[C@H](Nc4cnc(C)c(C)n4)C3)nc2)c1=O` [Example 12, 6′-(((1S,3S)-3-((5,6-Dimethylpyrazin-2-yl)amino)cyclopentyl)amino)-3-methoxy-2H-[1,3′-bipyridin]-2-one], for which the IC50 in assay [1] was more than 10 µM; in assay [2] it was more than 40000 nM; on PCSK9 [4], 13 nM. In addition, at PCSK9 [3], the EC50 stood at 100 nM.

Consider `Cc1cnc(N[C@H]2CC[C@H](Nc3ccc(-n4c(=O)ccc5ccccc54)cn3)C2)cn1` [Example 38, 1-(6-(((1S,3S)-3-((5-Methylpyrazin-2-yl)amino)cyclopentyl)amino)pyridin-3-yl)quinolin-2(1H)-one], for which the IC50 in assay [1] is more than 10 µM; in assay [2], 25100 nM; at PCSK9 [4], 2.2 nM. In addition, on PCSK9 [3], the EC50 was 100 nM.

Turning to `Cc1cnc(N[C@H]2CC[C@H](Nc3ccc(-n4c(=O)n(C)c5cc(C#N)cnc54)cn3)C2)cn1` [Example 218, 1-Methyl-3-(6-(((1S,3S)-3-((5-methylpyrazin-2-yl)amino)cyclopentyl)amino)pyridin-3-yl)-2-oxo-2,3-dihydro-1H-imidazo[4,5-b]pyridine-6-carbonitrile], the IC50 in assay [1] was more than 10 µM; in assay [2] it was 22500 nM; on PCSK9 [4] it was 5.4 nM. In addition, the EC50 at PCSK9 [3] turned out to be 300 nM.

As to `COc1cccn(-c2ccc(N[C@H]3CC[C@H](Nc4cnc(Cl)cn4)C3)nc2)c1=O` [Example 13, 6′-(((1S,3S)-3-((5-Chloropyrazin-2-yl)amino)cyclopentyl)amino)-3-methoxy-2H-[1,3′-bipyridin]-2-one], the IC50 was more than 10 µM in assay [1], 35600 nM in assay [2] and 4 nM at PCSK9 [4]. Besides, the EC50 on PCSK9 [3] was determined as 200 nM.

As to `N#Cc1cccn(-c2ccc(N[C@H]3CC[C@H](Nc4cnc(Cl)cn4)C3)nc2)c1=O` [Example 101, 6′-(((1S,3S)-3-((5-Chloropyrazin-2-yl)amino)cyclopentyl)amino)-2-oxo-2H-[1,3′-bipyridine]-3-carbonitrile], the 50% inhibitory concentration (IC50) in assay [1] is more than 10 µM; in assay [2], 19400 nM; against PCSK9 [4] it was 5.5 nM. Also, the EC50 at PCSK9 [3] turned out to be 600 nM.

In the case of `O=c1c(Cl)cccn1-c1ccc(N[C@H]2CC[C@H](Nc3cnc(C4CC4)cn3)C2)nc1` [Example 108, 3-Chloro-6′-(((1S,3S)-3-((5-Cyclopropylpyrazin-2-yl)amino)cyclopentyl)amino)-2H-[1,3′-bipyridin]-2-one], the figures for the IC50 (in assay [1]; in assay [2]; against PCSK9 [4]) were more than 10 µM, 12700 nM and 3.4 nM, respectively. Besides, the EC50 on PCSK9 [3] came to 400 nM.

In the case of `Cc1ncc(N[C@H]2CC[C@H](Nc3ccc(-n4cc(C(=O)O)ccc4=O)cn3)C2)nc1C` [Example 14, 6′-(((1S,3S)-3-((5,6-Dimethylpyrazin-2-yl)amino)cyclopentyl)amino)-2-oxo-2H-[1,3′-bipyridine]-5-carboxylic acid], the IC50 was more than 10 µM in assay [1], more than 40000 nM in assay [2] and 52 nM on PCSK9 [4]. At PCSK9 [3], the EC50 turned out to be 200 nM.

With `Cc1cnc(N[C@H]2CC[C@H](Nc3ccc(-n4cc(-c5c[nH]nn5)ccc4=O)cn3)C2)cn1` [Example 209, 6′-(((1S,3S)-3-((5-Methylpyrazin-2-yl)amino)cyclopentyl)amino)-5-(1H-1,2,3-triazol-4-yl)-2H-[1,3′-bipyridin]-2-one], the figures for the IC50 (in assay [1]; in assay [2]; against PCSK9 [4]) were more than 10 µM, more than 40100 nM and 6.3 nM, respectively. The EC50 on PCSK9 [3] was found to be 200 nM.
